Test results published in US8257931B2 (President and Fellows of Harvard College, priority 2005, dated 2012).
“Also recorded” adds a separate entry of the source. Like-named read-outs stand apart in the source and are kept apart here.

What was measured:
Jurkat cells [1] = assay: Real-time PCR of c-myc and Bcl-xL mRNA relative to β-actin in Jurkat cells; conditions: 8 hrs
Experimental: (§7) For analysis of cellular protein and mRNA levels, Jurkat cells were grown for 8 hours in the presence of the compound. Extracts for Western blotting were prepared from half of the cells by multiple freeze-thaw cycles. β-actin, Bcl-xL, and c-myc were detected using polyclonal antibodies (Cell Signaling). For the remaining cells the PARIS kit (Ambion) was used to isolate total nuclear and total cytoplasmic RNA fractions. The integrity of the fractionation was confirmed by agarose gel electrophoresis (as prescribed by Ambion). Contaminating DNA was removed using the DNA-free kit (Ambion), and cDNA was prepared using MMLV reverse transcriptase (Promega). The relative abundance of the c-myc and Bcl-xL messages compared to β-actin was determined by real-time PCR with validated QuantiTec probes and the QuantiTec SYBR Green Kit (Qiagen), using a thermocycler from Applied Biosystems.

Jurkat cells [2] = assay: Jurkat cell viability by intracellular ATP (CellTiterGlo); format: cell-based, human; conditions: 24 hours
Experimental: (§1) Such results can result from pro-apoptotic and/or anti-proliferative activity in these cell lines. Cell viability was measured by treatment of Jurkat cells with compound for 24 hours and determination of intracellular ATP using the CellTiterGlo assay (Promega). […] After fixation and staining with PI cellular DNA content was determined by FACS analysis in a FACSCalibur machine (Beckton Dickinson). Nuclear morphology after 24 hour EG1-1 treatment was visualized by staining of cells with Hoechst 33342 dye and fluorescence microscopy.

A549 lung cancer cells = assay: A549 proliferation, sulforhodamine B (SRB) assay; format: cell-based, human
Experimental: FIG. 28 is a graph showing the results of a cell proliferation assay. A549 cells, which are human lung cancer cells, are grown in plates for five days in medium containing 5% FCS and compound. The number of cells is quantified by staining with sulforhodamine B.

[3] = test system: human lung cancer cell line (A549); assay: A549 cell growth inhibition, Alamar Blue assay; format: cell-based
Experimental: (§2) Adherent human solid tumor cells were plated and maintained for 3 days in the presence of increasing concentration of the compounds, and cell proliferation was measured by alamar blue assay, where 10% of commercially available solution is added to the cell medium and measure fluorescence in 96-well plates at wavelength of 530 nm excitation and 590 nm emission. The data calculations were carried out as previously described.
(§3) Compounds were further tested for cell growth inhibition in a human lung cancer cell line (A549) and conlon cancer cell line (HT29). The Alamar Blue assay, which specifically measures the inhibition of cell proliferation, was used to assess the GI50's of the compounds.

HT29 colon cancer cells = assay: HT29 cell growth, Alamar Blue assay; format: cell-based; conditions: Homo sapiens, HT-29
Experimental: as §2
Med. Chem. Lett. 14: 2547-50, 2004. […] .
as §3

[4] = test system: cap-dependent translation; assay: In vitro translation of dual luciferase reporter in rabbit reticulocyte lysate, cap-dependent Renilla luciferase; format: biochemical
Text: (§4) To determine the relative effects of the compound on cap dependent and independent translation, we utilized a bicistronic mRNA construct containing the gene for Renilla luciferase under the control of the cap and the message for firefly luciferase under the control of the cricket paralysis virus IRES (FIG. 2A). […] A dicistronic reporter construct containing the Renilla reniformis luciferase sequence after the 5′ UTR followed by the CrPV IRES and the firefly luciferase sequence was used to build a reporter construct plasmid. The reporter construct plasmid was linearized with BamHI and transcribed in vitro with an ARCA cap using the mMessage Machine T7 Ultra Kit (Ambion). In vitro translation reactions were carried out using Red Nova reticulocyte lysate (Novagen) with 2 mM magnesium acetate and […] potassium acetate, incubated at 30 degrees C. for 90 minutes. Translation of reporter genes was measured using the Dual-Glo luciferase assay (Promega) in a Wallac Victor^2 plate reader.
(§5) In addition to structurally characterizing the binding of our hit compounds, biological activities of the compounds was evaluated. […] To test this hypothesis in vitro, a translation assay in rabbit reticulocyte lysate was carried out. A dicistronic reporter construct containing a cap-dependent Renilla luciferase and a cricket paralysis virus IRES driven firefly luciferase was utilized to measure the relative affect of a compound on both translation mechanisms.
(§6) A functional cell free assay determined the relative effects of the compounds on cap- and IRES-dependent translations. This assay involved the in vitro translation of bicistronic mRNA reporter construct encoding for renilla luciferase in a cap-dependent and for firefly luciferase in a cap independent manner, the later driven by cricket paralysis virus IRES.

Jurkat cells [5] = assay: Apoptosis in Jurkat cells: sub-G1 DNA content by FACS, Hoechst 33342 nuclear morphology; format: cell-based, human
Experimental: as §1

A549 cells = assay: A549 cytotoxicity, CellTiter-Glo luminescence assay; conditions: A549, 16 hours, concentration range of anti-proliferative activity
Experimental: To determine if this was simply due to toxicity, cell viability after compound treatment was determined using a luminescence assay (FIG. 8B).

IRES driven translation = assay: In vitro translation of dual luciferase reporter in rabbit reticulocyte lysate, CrPV IRES driven firefly luciferase; format: biochemical
Text: as §4, §5, §6

Jurkat cells [6] = assay: Western blotting of Jurkat cell extracts for protein levels; conditions: 8 hours
Experimental: as §7

Structure (SMILES): O=C(O)/C(Cc1ccccc1[N+](=O)[O-])=N/Nc1nc(-c2ccc(Cl)c(Cl)c2)cs1 [EGI-1, 2-{[4-(3,4-Dichloro-phenyl)-thiazol-2-yl]-hydrazono}-3-(2-nitro-phenyl)-propionic acid]
- transcriptional level, transport or stability of c-myc and Bcl-xL mRNA (Jurkat cells [1]): does not affect
- cell viability (cellular ATP level) (Jurkat cells [2]): induces loss of cell viability; also recorded: dose-dependent loss of cell viability
- IC50 (A549 lung cancer cells; Homo sapiens, A549, FIG. 8A, read-out: IC50, anti-proliferative activity in A549 cells): ~6 µM
- proliferation of A549 cells (in words) (A549 lung cancer cells; SRB assay, five day growth period): inhibits proliferation
- GI50 [3]: 5 µM
- IC50 (HT29 colon cancer cells): 9 µM
- GI50 (HT29 colon cancer cells; Alamar Blue assay): 9 µM
- cap-dependent translation (Renilla luciferase) [4]: inhibits cap-dependent translation; also recorded: inhibited in a dose-dependent manner; also recorded: inhibited translation of the cap-dependent luciferase
- cap-dependent translation (Renilla luciferase) ([4]; listed as compound 1): inhibit dose-dependently
- apoptosis induction (Jurkat cells [5]): induces apoptosis; also recorded: pro-apoptotic activity
- sub-G1 fraction on co-treatment with zVAD-FMK (Jurkat cells [5]; 60 μM with 100 μM zVAD-FMK, 24 hours): suppressed
- nuclear morphology (Hoechst 33342) (Jurkat cells [5]; 60 μM, 24 hours): induces fragmented nuclear morphology
- sub-G1 fraction (fragmented DNA) (Jurkat cells [5]; 60 μM, 24 hours): induces DNA fragmentation; also recorded: large increase in the sub-G1 fraction
- cytotoxicity (cell viability after compound treatment) (A549 cells): No significant cytotoxicity
- IRES driven / cap-independent translation (firefly luciferase) (IRES driven translation): does not inhibit; also recorded: not inhibited and in fact significantly enhanced; also recorded: enhanced translation from the CrPV IRES
- IRES driven / cap-independent translation (firefly luciferase) (IRES driven translation; listed as compound 1): enhance
- effect on strong mRNAs such as β-actin (protein level) (Jurkat cells [6]): little or no effect
- production of proteins encoded by weak mRNAs (Bcl-xL, c-myc) (Jurkat cells [6]): inhibits the production
